Source: patent US20070088067A1, “Novel amidine compounds for treating microbial infections” (priority 2003, published 2007)
Counter-ions that a name gives are not always drawn. Like-named read-outs stand apart in the source and are kept apart here.

Assays:
[1] = tested on: Trypanosoma brucei rhodesiense (T.b.r.); assay: in vitro effectiveness against Trypanosoma brucei rhodesiense; type: cell-based
Source text: (§1) These compounds can thus be employed as treatments of second-stage human African trypanosomiasis.

[2] = tested on: Plasmodium falciparum (P.f.); assay: in vitro effectiveness against Plasmodium falciparum; type: cell-based
Source text: as §1

[3] = tested on: Trypanosoma brucei rhodesiense (T.b.r.); assay: in vivo effectiveness against T.b.r. (cures); conditions: cures / animals treated
Source text: as §1

[4] = Trypanosoma brucei, RHODESIENSE

IC50 [1, 4] [nM]	melting point [°C]	IC50 ([2]; Plasmodium falciparum) [nM]	SMILES	IC50 [1] [nM]	IC50 [2] [nM]	In vivo vs. T.b.r. cures [3]
24	–	9.7	CC(=O)O.N=C(N)c1ccc(-c2cccc(-c3nc4ccc(C(=N)N)cc4[nH]3)n2)cc1 [Compound 36, 2-(5-Amidinobenzimidazol-2-yl)-6-(4-amidinophenyl)pyridine acetate salt]	–	–	1/4
11	–	32	N=C(N)c1ccc(-c2ccc(-c3nc4cc(C(=N)N)ccc4o3)o2)cc1 [Compound 41]	–	–	4/4

More lines, now with the values behind:

SMILES	IC50 [1, 4] [nM]	melting point [°C]	IC50 ([2]; Plasmodium falciparum) [nM]	IC50 [1] [nM]	IC50 [2] [nM]	In vivo vs. T.b.r. cures [3]
N#Cc1ccc(-c2cccc(C=O)n2)cc1 [Compound 6, 6-(4-Cyanophenyl)pyridine-2-carbaldehyde]	21.7	158 to 159	25.5	–	–	–
c1cc(-c2nc3ccc(C4=NCCN4)cc3[nH]2)ccc1CCc1ccc(-c2nc3ccc(C4=NCCN4)cc3[nH]2)cc1 [Compound 24, 4,4′-Bis{2-[-6(2-imidazolino]benzimidazolyl}-1,2-diphenylethanetetrahydrochloride]	–	–	–	393	19.6	–
CSc1cc(-c2ccc(-c3ccc(NC(=N)N)c(SC)c3)o2)ccc1NC(=N)N [Compound 42, 2,5-Bis(4-guanidino-3-thiomethoxyphenyl)furan Dihydrochloride]	57	–	66	–	–	–
N=C(Nc1ccc(-c2ccc(-c3ccc(NC(=N)c4ccccn4)cc3O)o2)c(O)c1)c1ccccn1 [Compound 43, 2,5-Bis[2-hydroxy-4-(2-pyridylimino)amino]furan Dihydrochloride]	32	–	5.1	–	–	–
CCOc1cc(-c2ccc(-c3ccc(NC(=N)N)c(OCC)c3)o2)ccc1NC(=N)N [Compound 44, 2,5-Bis(3-ethoxy-4-guanidinophenyl)furan dihydrochloride]	40	–	14.7	–	–	–
Cc1cc(C(=N)N)ccc1-c1ccc(-c2nc3ccc(C(=N)N)cc3[nH]2)o1 [Compound 45, 2-{2-[5(6)-Amidino]benzimidazolyl}-5-[(4-amidino-2-methyl)-phenyl]-furan trihydochloride]	–	–	–	9.4	147	2/4
